Measured values: ChEMBL document CHEMBL1201862, “PubChem BioAssay data set” (2004)
Active and inactive are the calls of the source.

How the values were obtained:
[1] = biological target: T1, Endoribonuclease toxin MazF (Escherichia coli K-12, UniProt P0AE70); assay: MazF toxin RNase activators, dose response, biochemical, fluorescence, single-stranded RNA substrate, uHTS hits (AID 588481); type: functional
T1 sequence (P0AE70 whole entry): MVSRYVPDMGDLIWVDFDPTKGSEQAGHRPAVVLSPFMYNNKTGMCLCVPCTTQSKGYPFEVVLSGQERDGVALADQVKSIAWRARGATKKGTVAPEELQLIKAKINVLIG

[2] = biological target: T1, Endoribonuclease toxin MazF; assay: fluorescent RNA oligo signal without MazF, dose response, counter-screen for MazEF activator project, biochemical, fluorescence, single-stranded RNase substrate (AID 588502); type: functional
[3] = biological target: Arf-GAP with SH3 domain, ANK repeat and PH domain-containing protein 1 (Homo sapiens, UniProt Q9ULH1); type: functional;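 note: biochemical fluorescence polarization dose–response screen measuring inhibition of ASAP1; ASAP1 GAP domain stimulating GTP hydrolysis by truncated human ARF1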
Sequence of Arf-GAP with SH3 domain, ANK repeat and PH domain-containing protein 1 (Q9ULH1 whole entry, the tested form may be a part): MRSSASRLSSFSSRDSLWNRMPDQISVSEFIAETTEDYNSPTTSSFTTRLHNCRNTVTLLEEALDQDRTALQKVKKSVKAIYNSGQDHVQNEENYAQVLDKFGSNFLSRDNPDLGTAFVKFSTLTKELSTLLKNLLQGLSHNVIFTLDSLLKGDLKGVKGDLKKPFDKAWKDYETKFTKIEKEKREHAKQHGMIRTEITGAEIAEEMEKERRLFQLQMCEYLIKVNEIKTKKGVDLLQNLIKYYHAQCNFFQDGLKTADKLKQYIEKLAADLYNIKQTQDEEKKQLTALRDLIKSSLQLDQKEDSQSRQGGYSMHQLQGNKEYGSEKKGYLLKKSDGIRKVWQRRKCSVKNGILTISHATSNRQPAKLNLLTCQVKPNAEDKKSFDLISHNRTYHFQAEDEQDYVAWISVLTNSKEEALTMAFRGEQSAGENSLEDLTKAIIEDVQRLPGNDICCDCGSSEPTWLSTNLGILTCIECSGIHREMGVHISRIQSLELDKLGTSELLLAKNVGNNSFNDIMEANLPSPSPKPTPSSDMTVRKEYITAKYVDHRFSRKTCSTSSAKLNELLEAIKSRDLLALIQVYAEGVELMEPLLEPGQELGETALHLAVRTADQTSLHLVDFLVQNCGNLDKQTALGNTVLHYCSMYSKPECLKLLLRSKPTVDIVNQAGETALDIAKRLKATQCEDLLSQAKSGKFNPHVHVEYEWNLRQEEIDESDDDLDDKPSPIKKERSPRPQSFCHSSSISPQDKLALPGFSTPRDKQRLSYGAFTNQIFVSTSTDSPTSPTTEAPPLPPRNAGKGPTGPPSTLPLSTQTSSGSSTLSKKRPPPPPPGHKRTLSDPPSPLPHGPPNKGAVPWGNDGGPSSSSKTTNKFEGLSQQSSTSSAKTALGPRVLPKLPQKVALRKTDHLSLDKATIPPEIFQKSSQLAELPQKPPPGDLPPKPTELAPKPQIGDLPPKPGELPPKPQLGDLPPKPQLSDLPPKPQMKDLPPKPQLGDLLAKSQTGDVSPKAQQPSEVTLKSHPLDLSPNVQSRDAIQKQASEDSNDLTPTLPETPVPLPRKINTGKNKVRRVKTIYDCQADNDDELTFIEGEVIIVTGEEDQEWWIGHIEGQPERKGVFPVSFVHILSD

[4] = biological target: T2, Aryl hydrocarbon receptor (Homo sapiens, UniProt P35869); conditions: Potency;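 note: confirmatory quantitative high-throughput screen measuring activation of the AhR signaling pathway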
T2 sequence (P35869 whole entry): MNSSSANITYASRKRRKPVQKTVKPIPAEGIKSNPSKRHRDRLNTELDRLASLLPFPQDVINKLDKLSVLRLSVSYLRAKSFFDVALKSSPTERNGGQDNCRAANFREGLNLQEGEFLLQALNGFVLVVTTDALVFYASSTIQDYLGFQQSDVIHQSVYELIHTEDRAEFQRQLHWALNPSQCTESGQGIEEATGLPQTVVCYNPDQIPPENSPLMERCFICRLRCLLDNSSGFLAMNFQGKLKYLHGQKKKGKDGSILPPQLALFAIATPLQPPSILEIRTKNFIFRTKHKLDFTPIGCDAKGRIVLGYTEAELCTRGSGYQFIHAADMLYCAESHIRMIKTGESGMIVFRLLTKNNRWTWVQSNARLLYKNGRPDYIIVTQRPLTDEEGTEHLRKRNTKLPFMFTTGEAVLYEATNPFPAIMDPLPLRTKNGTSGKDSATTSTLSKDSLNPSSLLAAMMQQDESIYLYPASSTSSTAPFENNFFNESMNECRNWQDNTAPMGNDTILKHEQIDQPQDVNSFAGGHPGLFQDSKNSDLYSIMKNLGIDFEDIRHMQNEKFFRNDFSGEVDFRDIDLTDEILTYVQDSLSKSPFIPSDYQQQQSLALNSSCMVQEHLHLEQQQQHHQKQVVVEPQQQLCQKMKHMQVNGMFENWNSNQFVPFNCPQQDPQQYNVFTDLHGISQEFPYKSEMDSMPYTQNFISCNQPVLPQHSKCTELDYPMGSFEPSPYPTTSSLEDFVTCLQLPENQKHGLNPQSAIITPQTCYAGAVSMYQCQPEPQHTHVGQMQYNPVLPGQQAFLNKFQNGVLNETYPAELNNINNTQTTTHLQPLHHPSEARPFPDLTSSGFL

[5] = biological target: Adenosylmethionine-8-amino-7-oxononanoate aminotransferase (Mycobacterium tuberculosis, UniProt P9WQ81); assay: Mycobacterium tuberculosis BioA enzyme inhibitor Measured in Biochemical System Using Plate Reader - 2163-02_Inhibitor_Dose_CherryPick_Activity.; type: functional, Mycobacterium tuberculosis UT205
Sequence of Adenosylmethionine-8-amino-7-oxononanoate aminotransferase (P9WQ81 whole entry): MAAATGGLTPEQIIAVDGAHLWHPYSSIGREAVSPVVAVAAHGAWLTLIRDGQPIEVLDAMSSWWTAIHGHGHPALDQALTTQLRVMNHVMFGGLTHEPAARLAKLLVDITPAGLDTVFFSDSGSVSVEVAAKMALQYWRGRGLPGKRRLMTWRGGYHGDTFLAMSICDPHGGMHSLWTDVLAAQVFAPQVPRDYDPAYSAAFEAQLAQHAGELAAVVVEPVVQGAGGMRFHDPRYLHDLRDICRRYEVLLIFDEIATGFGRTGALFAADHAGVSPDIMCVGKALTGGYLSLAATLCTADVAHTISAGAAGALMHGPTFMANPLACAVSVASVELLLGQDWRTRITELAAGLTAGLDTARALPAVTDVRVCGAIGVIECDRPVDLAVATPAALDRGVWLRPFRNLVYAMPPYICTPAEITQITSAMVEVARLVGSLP

Beta-lactamase [6] = biological target: T3, Beta-lactamase (Pseudomonas aeruginosa, UniProt Q79MP6); assay: IMP-1 metallo-beta-lactamase inhibitors, dose response, selectivity assay for VIM-2 inhibitor project, biochemical, epi-absorbance (AID 1920)
T3 sequence (Q79MP6 whole entry): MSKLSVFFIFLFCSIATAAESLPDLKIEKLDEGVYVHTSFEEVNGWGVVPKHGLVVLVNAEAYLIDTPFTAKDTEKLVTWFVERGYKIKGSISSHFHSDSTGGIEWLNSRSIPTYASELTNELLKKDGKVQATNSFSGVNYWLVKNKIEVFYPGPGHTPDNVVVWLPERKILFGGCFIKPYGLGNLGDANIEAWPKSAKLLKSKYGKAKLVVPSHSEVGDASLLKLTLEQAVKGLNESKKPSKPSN

Beta-lactamase [7] = biological target: T3, Beta-lactamase; assay: […] counterscreen for selective VIM-2 inhibitors: dose response biochemical high throughput screening assay to identify inhibitors of IMP-1 metallo-beta-lactamase.
Beta-lactamase [8] = biological target: Beta-lactamase (Salmonella choleraesuis (strain SC-B67), UniProt Q5J463); assay: Epi-absorbance-based counterscreen for selective VIM-2 inhibitors: dose response biochemical high throughput screening assay to identify inhibitors of TEM-1 serine-beta-lactamase.
Sequence of Beta-lactamase (Salmonella choleraesuis (strain SC-B67), UniProt Q5J463) (Q5J463 whole entry): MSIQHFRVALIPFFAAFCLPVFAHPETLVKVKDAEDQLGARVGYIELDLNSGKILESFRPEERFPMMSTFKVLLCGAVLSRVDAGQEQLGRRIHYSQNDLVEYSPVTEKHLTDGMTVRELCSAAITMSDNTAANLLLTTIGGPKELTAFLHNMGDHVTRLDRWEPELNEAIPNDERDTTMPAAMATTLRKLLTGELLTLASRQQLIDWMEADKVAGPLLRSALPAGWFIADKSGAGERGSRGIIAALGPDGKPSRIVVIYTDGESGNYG

[9] = biological target: DNA dC->dU-editing enzyme APOBEC-3G (Homo sapiens, UniProt Q9HC16); assay: Dose Response confirmation of small molecule APOBEC3G DNA Deaminase Inhibitors via a fluorescence-based single-stranded DNA deaminase assay. [Related pubchem assays (depositor defined):AID493012, AID493028]; type: functional
Sequence of DNA dC->dU-editing enzyme APOBEC-3G (Q9HC16 whole entry): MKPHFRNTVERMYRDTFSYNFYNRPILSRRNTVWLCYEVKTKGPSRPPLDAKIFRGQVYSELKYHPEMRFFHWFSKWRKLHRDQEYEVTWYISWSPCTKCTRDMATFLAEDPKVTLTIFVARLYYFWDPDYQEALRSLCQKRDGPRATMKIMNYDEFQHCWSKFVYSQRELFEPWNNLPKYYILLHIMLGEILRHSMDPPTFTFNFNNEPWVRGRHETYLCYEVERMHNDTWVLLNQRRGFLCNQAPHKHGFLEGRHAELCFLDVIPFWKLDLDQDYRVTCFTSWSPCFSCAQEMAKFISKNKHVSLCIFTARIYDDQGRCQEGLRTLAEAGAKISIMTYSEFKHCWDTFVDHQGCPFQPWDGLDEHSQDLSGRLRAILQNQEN

Vero = Vero cell cytotoxicity, cytotoxicity control for flavivirus capping enzyme inhibitors (AID 588742); type: functional; conditions: Chlorocebus sabaeus
[10] = microbe, parasite or virus in culture; type: functional; conditions: Mycobacterium tuberculosis
[11] = biological target: Dual specificity protein kinase CLK4 (Homo sapiens, UniProt Q9HAZ1); type: functional
Sequence of Dual specificity protein kinase CLK4 (Q9HAZ1 whole entry): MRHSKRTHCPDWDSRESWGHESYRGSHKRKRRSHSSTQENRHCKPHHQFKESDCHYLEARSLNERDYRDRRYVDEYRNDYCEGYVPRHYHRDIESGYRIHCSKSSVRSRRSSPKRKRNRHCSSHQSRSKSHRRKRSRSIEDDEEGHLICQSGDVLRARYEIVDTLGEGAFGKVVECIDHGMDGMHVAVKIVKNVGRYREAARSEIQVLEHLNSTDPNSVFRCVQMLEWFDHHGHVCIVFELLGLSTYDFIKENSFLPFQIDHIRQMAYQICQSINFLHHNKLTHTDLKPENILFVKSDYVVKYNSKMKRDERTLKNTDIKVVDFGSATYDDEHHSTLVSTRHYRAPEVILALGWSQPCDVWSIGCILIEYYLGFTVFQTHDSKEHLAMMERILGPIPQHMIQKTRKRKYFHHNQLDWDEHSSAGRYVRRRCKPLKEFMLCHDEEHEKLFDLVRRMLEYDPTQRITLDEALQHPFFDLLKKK

[12] = biological target: Dual specificity tyrosine-phosphorylation-regulated kinase 1A (Homo sapiens, UniProt Q13627); type: functional;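 note: measured against DYRK1A as one member of a broad kinome profiling panel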
[13] = biological target: Dual specificity protein kinase CLK2 (Homo sapiens, UniProt P49760); type: functional
Sequence of Dual specificity protein kinase CLK2 (P49760 whole entry): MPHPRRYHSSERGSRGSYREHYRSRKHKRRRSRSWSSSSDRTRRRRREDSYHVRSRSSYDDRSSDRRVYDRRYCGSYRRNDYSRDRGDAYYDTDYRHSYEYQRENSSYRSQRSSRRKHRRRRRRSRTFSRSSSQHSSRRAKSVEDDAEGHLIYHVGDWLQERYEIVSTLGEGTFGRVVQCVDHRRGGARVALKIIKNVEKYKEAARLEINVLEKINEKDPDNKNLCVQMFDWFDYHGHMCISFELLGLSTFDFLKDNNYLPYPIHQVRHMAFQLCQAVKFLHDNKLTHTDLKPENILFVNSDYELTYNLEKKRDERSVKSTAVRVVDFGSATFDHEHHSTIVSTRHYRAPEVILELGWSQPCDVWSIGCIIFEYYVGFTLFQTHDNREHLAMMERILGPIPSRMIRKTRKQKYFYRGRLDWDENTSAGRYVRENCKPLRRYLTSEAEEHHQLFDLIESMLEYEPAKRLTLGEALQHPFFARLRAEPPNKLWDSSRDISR

[14] = biological target: Mitogen-activated protein kinase 9 (Homo sapiens, UniProt P45984); type: functional;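 note: value from a kinome panel profiling assay, MAPK9 panel entry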
Sequence of Mitogen-activated protein kinase 9 (P45984 whole entry, the tested form may be a part): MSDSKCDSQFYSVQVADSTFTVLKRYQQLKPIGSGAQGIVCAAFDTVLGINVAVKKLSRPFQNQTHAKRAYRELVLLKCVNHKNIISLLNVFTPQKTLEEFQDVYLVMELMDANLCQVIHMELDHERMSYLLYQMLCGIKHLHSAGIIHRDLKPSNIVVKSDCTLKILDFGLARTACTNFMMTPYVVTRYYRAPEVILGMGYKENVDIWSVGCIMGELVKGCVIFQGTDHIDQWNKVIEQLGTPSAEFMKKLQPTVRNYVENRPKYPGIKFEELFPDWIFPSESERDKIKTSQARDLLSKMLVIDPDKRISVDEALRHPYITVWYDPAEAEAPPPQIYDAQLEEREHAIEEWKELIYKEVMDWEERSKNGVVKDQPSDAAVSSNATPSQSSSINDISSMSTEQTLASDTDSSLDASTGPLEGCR

[15] = biological target: Hepatocyte nuclear factor 4-alpha (Homo sapiens, UniProt P41235); type: functional, cell-based;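 note: biochemical luminescence-based dose-response counterscreen measuring inhibition of HNF4 dimerization, run alongside a screen for blockers of ABHD5–perilipin-5 interaction; split luciferase complementation of HNF4 fusion proteins in cell lysate measuring dimerization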
Sequence of Hepatocyte nuclear factor 4-alpha (P41235 whole entry, the tested form may be a part): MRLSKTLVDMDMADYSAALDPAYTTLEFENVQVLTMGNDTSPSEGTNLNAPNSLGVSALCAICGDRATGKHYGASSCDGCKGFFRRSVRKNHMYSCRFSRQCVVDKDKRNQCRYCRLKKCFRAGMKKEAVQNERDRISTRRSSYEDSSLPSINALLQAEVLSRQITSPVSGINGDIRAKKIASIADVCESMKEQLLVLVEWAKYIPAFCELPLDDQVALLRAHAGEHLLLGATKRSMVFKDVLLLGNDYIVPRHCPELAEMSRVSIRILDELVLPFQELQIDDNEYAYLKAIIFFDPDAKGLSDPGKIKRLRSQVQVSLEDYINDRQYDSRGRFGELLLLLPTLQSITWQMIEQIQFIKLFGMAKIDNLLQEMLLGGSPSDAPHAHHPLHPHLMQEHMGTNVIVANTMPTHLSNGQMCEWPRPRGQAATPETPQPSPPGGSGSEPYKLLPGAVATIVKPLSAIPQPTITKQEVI

Cc1ccc(NC(=O)c2ccc(NCc3ccco3)c([N+](=O)[O-])c2)cc1Cl
EC50 [1]: > 99 µM (inactive) | EC50 [2]: > 99 µM (inactive) | IC50 [3]: 33.6 µM (inactive)

Oc1ccc2cc(SSc3ccc4cc(O)ccc4c3)ccc2c1
AC50 [4]: 56.2 µM (inconclusive)

O=C(COc1ccc2ccc(=O)oc2c1)N1CCN(c2ccc(F)cc2)CC1
AC50 [5]: 1 µM (active)

CCCCn1c(S)nnc1-c1nn(C)c(C)c1Cl
IC50 (Beta-lactamase [6]): > 59.6 µM (inactive) | IC50 (Beta-lactamase [7]): > 59.6 µM (inactive) | IC50 (Beta-lactamase [8]): > 59.6 µM (inactive) | IC50 [9]: 12.5 µM (active)

COc1cc(Cl)c(OC)cc1N
AC50 [4]: 56.2 µM (inconclusive)

c1ccc(-n2cnc3cc(NCc4cccs4)ccc32)cc1
CC50 (Vero): > 40 µM (active) | CC50 [10]: > 40 µM (active)

O=c1[nH]c2ccc(Br)cc2n1-c1cc(Cl)c(O)cc1O
Ki [11]: 3.16 µM (active) | Ki [12]: 5.01 µM (active) | Ki [13]: 6.31 µM (active)

CC(C)(C)c1cc(NC(=O)c2cc3ccccc3s2)n(-c2ccc(OCC(=O)O)cc2)n1
Ki [14]: 3.98 µM (active)

COc1ccc(NC(=O)C(c2cccc3ccccc23)n2c(=O)c(-c3ccco3)nc3ccccc32)cc1 (configuration not stated)
IC50 [15]: 25.5 µM (inactive)
